Like-named read-outs stand apart in the source and are kept apart here. Each block holds one molecule with its values, some of them ahead of it.
Tests used:
NUDT5 [1] = biological target: T1, NUDT5 (Homo sapiens, UniProt Q9UKK9); assay: NUDT5 catalytic assay (AMP-Glo); type: biochemical; conditions: for NUDT5 inhibition: concentrations of up to 50 μM; for NUDT5 IC50: supplementary CSV
Procedure: (§1) Inhibition activities of the compounds were determined using AMP-Glo system (Promega). The compounds were diluted from 50 μM to 0 μM in a final reaction containing 20 mM HEPES, 100 mM NaCl, 0.5 mM TCEP, 1 mM MgCl2, and 0.1% BSA, pH 7.4. […] The final DMSO concentration was 1% for all reactions. […] The reactions were further incubated with 4 μL of the detection solution for 1 h at rt. Luminescence signals were then measured in a PHERAstar FSX plate reader. Experiments were done in triplicate sets, and data were analyzed by GraphPad Prism 9. Inhibitor dose–response data were normalized to reactions containing vehicle only (1% v/v DMSO, 100% activity) and reactions containing 500 nM TH5427 (6) (1% v/v DMSO, 0% activity). Data are represented as the mean ± SD of two independent biological replicates.

recombinant human NUDT14 = biological target: T2, recombinant human NUDT14 (Homo sapiens, UniProt O95848); assay: NUDT14 catalytic assay (AMP-Glo); type: biochemical
T2 sequence (O95848 1-222): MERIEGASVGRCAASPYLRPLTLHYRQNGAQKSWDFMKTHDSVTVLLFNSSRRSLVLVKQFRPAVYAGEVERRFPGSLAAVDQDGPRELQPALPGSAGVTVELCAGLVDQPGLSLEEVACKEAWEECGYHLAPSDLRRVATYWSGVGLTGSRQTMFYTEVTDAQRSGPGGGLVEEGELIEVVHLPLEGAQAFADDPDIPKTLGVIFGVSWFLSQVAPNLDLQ
Procedure: as §1

BT-474 cells = assay: Cell viability assay (CellTiter-Glo); type: cell-based; conditions: Homo sapiens, 72 h of incubation
Procedure: BT-474 cells were cultivated in DMEM containing 10% FBS at 37 °C and 5% CO2. […] Cells were trypsinized, counted, and diluted to 25,000 cells/mL in culture medium. 40 μL of cell suspension was seeded to each well, and plates were sealed with a breathable film and incubated for 72 h. Cell viability was determined using the CellTiter-Glo reagent following the manufacturer’s instructions (Promega). Luminescence signals were measured in a PHERAstar FS or FSX and analyzed by GraphPad Prism (v.9 or v.10). Data were normalized to DMSO.

NUDT5 [2] = biological target: T1, NUDT5; assay: biochemical; set-up: 6xHis tag followed by TEV site (N, cleaved yes); made in house; host or cells: Escherichia coli (DE3)
NUDT15 = biological target: T3, NUDT15 (Homo sapiens, UniProt Q9NV35); assay: biochemical
T3 sequence (Q9NV35 1-164): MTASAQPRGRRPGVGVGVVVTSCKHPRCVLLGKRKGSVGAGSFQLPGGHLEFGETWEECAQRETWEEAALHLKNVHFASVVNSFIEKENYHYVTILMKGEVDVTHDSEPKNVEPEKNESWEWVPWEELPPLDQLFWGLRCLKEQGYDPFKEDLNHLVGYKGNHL

NUDT1 = NUDT1 (Homo sapiens, UniProt P36639); assay: biochemical
NUDT17 = biological target: T4, NUDT17 (Homo sapiens, UniProt P0C025); assay: biochemical
T4 sequence (P0C025 1-328): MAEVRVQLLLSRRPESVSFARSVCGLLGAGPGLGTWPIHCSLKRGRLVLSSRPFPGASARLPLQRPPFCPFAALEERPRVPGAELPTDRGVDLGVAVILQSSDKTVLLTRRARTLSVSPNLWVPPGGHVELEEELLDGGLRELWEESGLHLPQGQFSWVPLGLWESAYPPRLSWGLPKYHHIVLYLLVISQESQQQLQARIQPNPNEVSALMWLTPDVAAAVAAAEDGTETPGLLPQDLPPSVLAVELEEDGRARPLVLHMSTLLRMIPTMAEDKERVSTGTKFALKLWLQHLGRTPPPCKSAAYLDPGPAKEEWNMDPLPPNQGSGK

NUDT12 = NUDT12 (Homo sapiens, UniProt Q9BQG2); assay: biochemical
Chain of NUDT12 (Q9BQG2 whole entry): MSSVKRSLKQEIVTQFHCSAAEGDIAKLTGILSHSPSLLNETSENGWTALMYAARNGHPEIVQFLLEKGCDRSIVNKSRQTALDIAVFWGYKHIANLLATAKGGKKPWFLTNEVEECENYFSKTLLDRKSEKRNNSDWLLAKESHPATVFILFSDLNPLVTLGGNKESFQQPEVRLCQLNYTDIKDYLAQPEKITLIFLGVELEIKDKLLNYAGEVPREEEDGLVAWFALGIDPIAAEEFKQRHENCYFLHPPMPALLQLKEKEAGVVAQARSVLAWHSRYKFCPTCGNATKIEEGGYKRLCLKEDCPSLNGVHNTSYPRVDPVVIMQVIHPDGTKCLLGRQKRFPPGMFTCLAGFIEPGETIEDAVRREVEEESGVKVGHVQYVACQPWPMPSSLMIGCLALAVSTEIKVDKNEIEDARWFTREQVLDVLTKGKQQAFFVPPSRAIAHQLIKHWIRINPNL

NUDT18 = biological target: T5, NUDT18 (Homo sapiens, UniProt Q6ZVK8); assay: biochemical
T5 sequence (Q6ZVK8 1-323): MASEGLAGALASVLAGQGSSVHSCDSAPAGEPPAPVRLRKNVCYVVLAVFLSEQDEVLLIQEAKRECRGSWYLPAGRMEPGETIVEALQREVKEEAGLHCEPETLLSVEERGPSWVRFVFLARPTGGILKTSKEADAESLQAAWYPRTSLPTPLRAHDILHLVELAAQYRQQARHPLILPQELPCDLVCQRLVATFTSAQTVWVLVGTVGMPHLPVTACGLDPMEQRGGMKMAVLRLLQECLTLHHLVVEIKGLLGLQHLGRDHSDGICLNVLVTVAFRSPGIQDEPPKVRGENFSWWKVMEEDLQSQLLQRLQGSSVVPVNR

NUDT16L1 = NUDT16L1 (Homo sapiens, UniProt Q9BRJ7); assay: biochemical
Chain of NUDT16L1 (Q9BRJ7 whole entry): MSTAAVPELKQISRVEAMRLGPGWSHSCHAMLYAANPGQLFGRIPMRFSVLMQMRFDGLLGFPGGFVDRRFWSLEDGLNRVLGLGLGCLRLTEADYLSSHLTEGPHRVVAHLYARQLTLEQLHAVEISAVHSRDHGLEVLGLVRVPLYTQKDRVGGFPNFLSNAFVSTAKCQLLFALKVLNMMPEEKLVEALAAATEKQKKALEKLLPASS

NUDT16 = NUDT16 (Homo sapiens, UniProt Q96DE0); assay: biochemical
Chain of NUDT16 (Q96DE0 whole entry): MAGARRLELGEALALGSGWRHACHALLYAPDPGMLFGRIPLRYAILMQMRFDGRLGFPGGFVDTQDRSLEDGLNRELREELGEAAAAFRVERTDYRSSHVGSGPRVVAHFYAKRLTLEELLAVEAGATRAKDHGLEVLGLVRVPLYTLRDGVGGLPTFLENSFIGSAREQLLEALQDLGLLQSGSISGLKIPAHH

NUDT9 = biological target: T6, NUDT9 (Homo sapiens, UniProt Q9BW91); assay: biochemical
T6 sequence (Q9BW91 1-350): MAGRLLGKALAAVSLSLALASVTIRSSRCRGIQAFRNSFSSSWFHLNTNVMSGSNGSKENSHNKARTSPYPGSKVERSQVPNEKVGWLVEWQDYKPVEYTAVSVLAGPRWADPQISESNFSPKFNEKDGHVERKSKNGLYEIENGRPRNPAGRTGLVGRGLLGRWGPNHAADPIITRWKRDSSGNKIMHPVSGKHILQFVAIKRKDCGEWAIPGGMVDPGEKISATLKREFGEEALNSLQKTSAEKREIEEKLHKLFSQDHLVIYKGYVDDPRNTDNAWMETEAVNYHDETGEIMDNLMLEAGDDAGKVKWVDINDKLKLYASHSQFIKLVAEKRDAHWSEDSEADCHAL

NUDT7 = NUDT7 (Homo sapiens, UniProt P0C024); assay: biochemical
Chain of NUDT7 (P0C024 whole entry): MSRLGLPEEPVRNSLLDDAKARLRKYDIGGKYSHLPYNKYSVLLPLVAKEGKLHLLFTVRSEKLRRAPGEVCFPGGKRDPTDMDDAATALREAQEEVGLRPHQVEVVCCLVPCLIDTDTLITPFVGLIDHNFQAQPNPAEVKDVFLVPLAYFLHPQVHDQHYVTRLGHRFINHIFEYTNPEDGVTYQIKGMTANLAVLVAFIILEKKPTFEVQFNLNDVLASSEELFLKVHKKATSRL

[3] = biological target: T7, purified human NUDT14 protein (Homo sapiens, UniProt O95848); assay: biochemical
T7 construct: 6xHis tag followed by TEV site (N, cleaved yes); made in house; host or cells: Escherichia coli (DE3)
T7 sequence (O95848 1-222): T2 sequence (O95848 1-222)

[4] = biological target: NanoLuc-NUDT5 in HEK293 cells (Homo sapiens, UniProt Q9UKK9); assay: NUDT5 live-cell NanoBRET target engagement assay; type: cell-based; conditions: 2.5 nM CBH-004 tracer, 2 h
Procedure: Donor and acceptor signals were measured in a PHERAstar FSX or FS plate reader and analyzed by GraphPad Prism (v.9 or v.10). […] Data were then normalized to DMSO.

[5] = biological target: HiBiT-NUDT14 in intact HEK293 cells (Homo sapiens, UniProt O95848); assay: HiBiT-NUDT14 cellular thermal shift assay (CETSA); type: cell-based
Procedure: The Nano-Glo HiBiT lytic detection system was used following the manufacturer’s instructions (Promega). In brief, 400,000 HEK293 cells/mL were reverse-transfected with N-terminal HiBiT tagged NUDT14 using FuGENE transfection reagent (Promega). After 24 h of incubation, cells were trypsinized and resuspended at 400,000 cells/mL in assay medium. The cells were divided into compound and untreated (DMSO) groups and treated accordingly. Ten μL of cells were seeded into each well in a 384-well white PCR plate and incubated for 1 h. After incubation, the samples were heated in a PCR thermocycler at the desired temperature gradient. The plate was allowed to stand for 5 min at rt, and 10 μL of Nano-Glo HiBiT lytic mix was added into each well. The signals were measured in a PHERAstar FSX and analyzed by GraphPad Prism (v.9 or v.10).

endogenous NUDT5 = endogenous NUDT5 (Homo sapiens, UniProt Q9UKK9); assay: Affinity pull-down with Western blot for NUDT5; type: binding; conditions: affinity matrix, cell lysate
Procedure: When reaching about 80% confluency, cells were harvested, washed with PBS, and frozen at −80 °C. Lysates were generated by adding 3× pellet volume of Buffer A (50 mM tris pH 7.5, 0.8% v/v NP-40, 5% v/v glycerol, 1.5 mM MgCl2, 100 mM NaCl, 25 mM NaF, 1 mM Na3VO4, 1 mM PMSF, 1 mM DTT, 10 μg/mL TLCK, 1 μg/mL Leupeptin, 1 μg/mL Aprotinin, 1 μg/mL soybean trypsin) supplemented with 1 μL/mL of benzonase. To facilitate lysis, crude lysate was drawn 10 times with a needle and incubated for 30 min on ice before clearing by centrifugation.
Affinity matrices were washed 4 times with 1 mL Buffer A, and proteins were eluted 2× with 50 μL of 2× Laemmli buffer containing 25 mM DTT in PBS for 5 min at 95 °C.

[6] = biological target: the molecule itself; assay: crystal structure; NUDT14 (20 mg/mL) cocrystallised with compound 9 at a molar ratio of 1:5; 0.2 M MgCl2, 0.1 M bis-tris pH 6.5, 25% PEG3350; sitting drop, 4 °C; dimer of chains A and B
[7] = read-out: NUDT5 IC50, AMP-Glo, 1 nM NUDT5, 10 μM ADPr, 20 min, rt
[8] = 1 nM NUDT14, 10 μM ADPr, 1 h, rt

Molecule: C=CC(=O)N1CCC[C@@H](n2nc(-c3ccc(Oc4ccccc4)cc3)c3c(N)ncnc32)C1 [Compound 1, ibrutinib, reference compound]
IC50 (NUDT5 [1]; [7]): 837 ± 329 nM
IC50 (recombinant human NUDT14; [8]): 990 ± 110 nM
IC50 (BT-474 cells): 27 ± 11 nM

Molecule: C=CC(=O)N1CCC[C@@H](n2nc(-c3ccc(Oc4ccccc4)cc3)c3c(N)ncnc32)C1 [Compound 1, ibrutinib]
Kd (NUDT5 [2]): 209 ± 62 nM
Kd (NUDT15): > 100000 nM
Kd (NUDT1): 3500 ± 280 nM
Kd (NUDT17): > 100000 nM
Kd (NUDT12): > 100000 nM
Kd (NUDT18): > 100000 nM
Kd (NUDT16L1): > 100000 nM
Kd (NUDT16): > 100000 nM
Kd (NUDT9): > 100000 nM
Kd (NUDT7): > 100000 nM
Kd [3]: 1900 ± 500 nM

NUDT5 inhibition (NUDT5 [1]): did not show any inhibition
NUDT5 IC50 (NUDT5 [1]; AMP-Glo): not active
Molecule: CC#CC(=O)N1CCC[C@H]1c1nc(-c2ccc(C(=O)Nc3ccccn3)cc2)c2c(N)nccn12 [Compound 2, acalabrutinib, reference compound]

Molecule: CC#CC(=O)N[C@H]1CCCN(c2c(F)cc(C(N)=O)c3[nH]c(C)c(C)c23)C1 [Compound 3, branebrutinib, reference compound]
NUDT5 inhibition (NUDT5 [1]): did not show any inhibition
NUDT5 IC50 (NUDT5 [1]; AMP-Glo): not active

EC50 [4]: 4 ± 1 nM
NUDT14 stabilisation compared to DMSO [5]: does not stabilise NUDT14
Molecule: Cn1c(=O)c2c(nc(N3CCNCC3)n2Cc2nnc(-c3ccc(Cl)c(Cl)c3)o2)n(C)c1=O [Compound 6, TH5427]

binding to endogenous NUDT5 (pull-down, Western blot) (endogenous NUDT5): retained binding
Molecule: Cn1c(=O)c2c(nc(N3CCN(CCCCN)CC3)n2Cc2nnc(-c3ccc(Cl)c(Cl)c3)o2)n(C)c1=O.O=C(O)C(F)(F)F [Compound 7, 4-(4-(7-((5-(3,4-Dichlorophenyl)-1,3,4-oxadiazol-2-yl)methyl)-1,3-dimethyl-2,6-dioxo-2,3,6,7-tetrahydro-1H-purin-8-yl)piperazin-1-yl)butan-1-aminium Trifluoroacetate]

IC50 (recombinant human NUDT14; [8]): 263 ± 31 nM
Molecule: Cn1nc(-c2ccc(Oc3ccccc3)cc2)c2c(N)ncnc21 [Compound 10, 1-Methyl-3-(4-phenoxyphenyl)-1H-pyrazolo[3,4-d]pyrimidin-4-amine]

IC50 (recombinant human NUDT14; [8]): 519 ± 84 nM
Molecule: Nc1ncnc2[nH]nc(-c3ccc(Oc4ccccc4)cc3)c12 [Compound 11, 3-(4-Phenoxyphenyl)-1H-pyrazolo[3,4-d]pyrimidin-4-amine]

IC50 (NUDT5 [1]; [7]): > 50000 nM
NUDT5 IC50 (NUDT5 [1]; AMP-Glo): not active
IC50 (recombinant human NUDT14; [8]): > 50000 nM
NUDT14 IC50 (recombinant human NUDT14; supplementary CSV): not active
Molecule: C=CC(=O)N1CC=C(c2nn(C3CCN(C)CC3)c3ncnc(N)c23)CC1 [Compound 12, 1-(4-(4-Amino-1-(1-methylpiperidin-4-yl)-1H-pyrazolo[3,4-d]pyrimidin-3-yl)-3,6-dihydropyridin-1(2H)-yl)prop-2-en-1-one]

IC50 (NUDT5 [1]): > 50000 nM
NUDT5 IC50 (NUDT5 [1]; AMP-Glo): not active
IC50 (recombinant human NUDT14; [8]): 3720 ± 190 nM
Molecule: C=CC(=O)N1CCC=C(c2nn(C3CCN(C)CC3)c3ncnc(N)c23)C1 [Compound 13, 1-(5-(4-Amino-1-(1-methylpiperidin-4-yl)-1H-pyrazolo[3,4-d]pyrimidin-3-yl)-3,6-dihydropyridin-1(2H)-yl)prop-2-en-1-one]

IC50 (recombinant human NUDT14; [8]): 1640 ± 140 nM
Molecule: C=CC(=O)NCc1ccc(-c2nn(C3CCN(C)CC3)c3ncnc(N)c23)cc1 [Compound 14, N-(4-(4-Amino-1-(1-methylpiperidin-4-yl)-1H-pyrazolo[3,4-d]pyrimidin-3-yl)benzyl)acrylamide]

IC50 (NUDT5 [1]): > 50000 nM
NUDT5 IC50 (NUDT5 [1]; AMP-Glo): not active
IC50 (recombinant human NUDT14; [8]): > 50000 nM
NUDT14 IC50 (recombinant human NUDT14; [8]): inactive
Molecule: C=CC(=O)N1CCC(c2nn(C3CCN(C)CC3)c3ncnc(N)c23)CC1 [Compound 15, 1-(4-(4-Amino-1-(1-methylpiperidin-4-yl)-1H-pyrazolo[3,4-d]pyrimidin-3-yl)piperidin-1-yl)prop-2-en-1-one]

B1: NUDT14 (enzyme, human, UniProt O95848 1-222, looked up)
chain: T2 sequence (O95848 1-222)
stoichiometry N [6]: 2

From PMC11089510 (Journal of Medicinal Chemistry, 2024)
